Measurements reported in patent publication US9376442B2, “Methylpyrrolopyrimidinecarboxamides” (Takeda GmbH, priority 2009, dated 2016).

Biological target: T1, PDE5A1 (Homo sapiens, UniProt O76074)
T1 construct: from tissue; host or cells: human platelets from fresh donor blood (10,000 x g supernatant of sonicated lysate)
Test: Inhibition of type 5 phosphodiesterase (PDE5) activity, modified SPA test with human platelet lysate
Type: biochemical
Settings: 0.5 μM cGMP, read-out: PDE5A1 inhibitory values [measured as −log IC50 (mol/l)] (converted)
How it was run: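 Scintillation proximity assay with [3H]cGMP tracer at 0.5 μM total cGMP, stopped after 15 min with beads containing IBMX. PDE3 and PDE2 activities suppressed with motapizone (1 μM) and a PDE2 inhibitor (10 nM). Human platelet supernatant served as the enzyme, with compound preincubated 5 min at 37° C; IC50 values from concentration-effect curves.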

IC50, < 1 nM:
Cc1cc(-c2ncnc3c(C(=O)N[C@H]4CC[C@@H](NC(=O)CO)CC4)c(C)[nH]c23)c(OCC2CC2)cc1F [Example F79, 4-[2-(Cyclopropylmethoxy)-4-fluoro-5-methylphenyl]-N-{cis-4-[(hydroxyacetyl)amino]cyclohexyl}-6-methyl-5H-pyrrolo[3,2-d]pyrimidine-7-carboxamide]
Cc1cc(-c2ncnc3c(C(=O)N[C@H]4CC[C@@H](NC(=O)[C@H](C)O)CC4)c(C)[nH]c23)c(OCC2CC2)cc1F [Example F80, 4-[2-(Cyclopropylmethoxy)-4-fluoro-5-methylphenyl]-N-(cis-4-{[(2S)-2-hydroxypropanoyl]amino}cyclohexyl)-6-methyl-5H-pyrrolo[3,2-d]pyrimidine-7-carboxamide]
COc1cc(OCC2CC2)c(-c2ncnc3c(C(=O)NC4CCN(C(=O)CO)CC4)c(C)[nH]c23)cc1F [Example F83, 4-[2-(Cyclopropylmethoxy)-5-fluoro-4-methoxyphenyl]-N-(1-glycoloylpiperidin-4-yl)-6-methyl-5H-pyrrolo[3,2-d]pyrimidine-7-carboxamide]
COc1cc(OCC2CC2)c(-c2ncnc3c(C(=O)NC4CCN(C(=O)[C@H](C)O)CC4)c(C)[nH]c23)cc1F [Example F84, 4-[2-(Cyclopropylmethoxy)-5-fluoro-4-methoxyphenyl]-N-{1-[(2S)-2-hydroxypropanoyl]piperidin-4-yl}-6-methyl-5H-pyrrolo[3,2-d]pyrimidine-7-carboxamide]
COc1cc(OCC2CC2)c(-c2ncnc3c(C(=O)N[C@H]4CC[C@H](NC(=O)CO)CC4)c(C)[nH]c23)cc1F [Example F85, 4-[2-(Cyclopropylmethoxy)-5-fluoro-4-methoxyphenyl]-N-[trans-4-(glycoloylamino)cyclohexyl]-6-methyl-5H-pyrrolo[3,2-d]pyrimidine-7-carboxamide]
COc1cc(OCC2CC2)c(-c2ncnc3c(C(=O)N[C@H]4CC[C@H](NC(=O)[C@H](C)O)CC4)c(C)[nH]c23)cc1F [Example F86, 4-[2-(Cyclopropylmethoxy)-5-fluoro-4-methoxyphenyl]-N-(trans-4-{[(25)-2-hydroxypropanoyl]amino}cyclohexyl)-6-methyl-5H-pyrrolo[3,2-d]pyrimidine-7-carboxamide]
COc1cc(OCC2CC2)c(-c2ncnc3c(C(=O)N[C@H]4CC[C@@H](NC(=O)CO)CC4)c(C)[nH]c23)cc1F [Example F87, 4-[2-(Cyclopropylmethoxy)-5-fluoro-4-methoxyphenyl]-N-[cis-4-(glycoloylamino)cyclohexyl]-6-methyl-5H-pyrrolo[3,2-d]pyrimidine-7-carboxamide]
COc1cc(OCC2CC2)c(-c2ncnc3c(C(=O)N[C@H]4CC[C@@H](NC(=O)[C@H](C)O)CC4)c(C)[nH]c23)cc1F [Example F88, 4-[2-(Cyclopropylmethoxy)-5-fluoro-4-methoxyphenyl]-N-(cis-4-{[(2S)-2-hydroxypropanoyl]amino}cyclohexyl)-6-methyl-5H-pyrrolo[3,2-d]pyrimidine-7-carboxamide]
CCc1ccc(OCC2CC2)c(-c2ncnc3c(C(=O)NC4CCN(C(=O)CO)CC4)c(C)[nH]c23)c1 [Example F91]
CCc1ccc(OCC2CC2)c(-c2ncnc3c(C(=O)NC4CCN(C(=O)[C@H](C)O)CC4)c(C)[nH]c23)c1 [Example F92, 4-[2-(Cyclopropylmethoxy)-5-ethylphenyl]-N-{1-[(2S)-2-hydroxypropanoyl]piperidin-4-yl}-6-methyl-5H-pyrrolo[3,2-d]pyrimidine-7-carboxamide]
CC(=O)c1ccc(OCC2CC2)c(-c2ncnc3c(C(=O)NC4CCN(C(=O)CO)CC4)c(C)[nH]c23)c1 [Example F102, 4-[5-Acetyl-2-(cyclopropylmethoxy)phenyl]-N-[1-(hydroxyacetyl)piperidin-4-yl]-6-methyl-5H-pyrrolo[3,2-d]pyrimidine-7-carboxamide]
CC(=O)c1ccc(OCC2CC2)c(-c2ncnc3c(C(=O)NC4CCN(C(=O)[C@H](C)O)CC4)c(C)[nH]c23)c1 [Example F103, 4-[5-Acetyl-2-(cyclopropylmethoxy)phenyl]-N-{1-[(2S)-2-hydroxypropanoyl]piperidin-4-yl}-6-methyl-5H-pyrrolo[3,2-d]pyrimidine-7-carboxamide]
CC(=O)c1ccc(OCC2CC2)c(-c2ncnc3c(C(=O)N[C@H]4CC[C@H](NC(=O)CO)CC4)c(C)[nH]c23)c1 [Example F104, 4-[5-Acetyl-2-(cyclopropylmethoxy)phenyl]-N-{trans-4-[(hydroxyacetyl)amino]cyclohexyl}-6-methyl-5H-pyrrolo[3,2-d]pyrimidine-7-carboxamide]
CC(=O)c1ccc(OCC2CC2)c(-c2ncnc3c(C(=O)N[C@H]4CC[C@H](NC(=O)[C@H](C)O)CC4)c(C)[nH]c23)c1 [Example F105, 4-[5-Acetyl-2-(cyclopropylmethoxy)phenyl]-N-(trans-4-{[(2S)-2-hydroxypropanoyl]amino}cyclohexyl)-6-methyl-5H-pyrrolo[3,2-d]pyrimidine-7-carboxamide]
Cc1ccc(OCC2CC2)c(-c2nc(C)nc3c(C(=O)NC4CCN(C(=O)[C@H](C)O)CC4)c(C)[nH]c23)c1 [Example F107, 4-[2-(Cyclopropylmethoxy)-5-methylphenyl]-N-{1-[(2S)-2-hydroxypropanoyl]piperidin-4-yl}-2,6-dimethyl-5H-pyrrolo[3,2-d]pyrimidine-7-carboxamide]
COc1cc(OCC2CC2)c(-c2nc(C)nc3c(C(=O)NC4CCN(C(=O)[C@H](C)O)CC4)c(C)[nH]c23)cc1F [Example F108, 4-[2-(Cyclopropylmethoxy)-5-fluoro-4-methoxyphenyl]-N-{1-[(2S)-2-hydroxypropanoyl]piperidin-4-yl}-2,6-dimethyl-5H-pyrrolo[3,2-d]pyrimidine-7-carboxamide]
COc1cc(-c2nc(C)nc3c(C(=O)NC4CCN(C(=O)CO)CC4)c(C)[nH]c23)c(OCC2CC2)cc1F [Example F109, 4-[2-(Cyclopropylmethoxy)-4-fluoro-5-methoxyphenyl]-N-[1-(hydroxyacetyl)piperidin-4-yl]-2,6-dimethyl-5H-pyrrolo[3,2-d]pyrimidine-7-carboxamide]
COc1cc(-c2nc(C)nc3c(C(=O)NC4CCN(C(=O)[C@H](C)O)CC4)c(C)[nH]c23)c(OCC2CC2)cc1F [Example F110, 4-[2-(Cyclopropylmethoxy)-4-fluoro-5-methoxyphenyl]-N-{1-[(2S)-2-hydroxypropanoyl]piperidin-4-yl}-2,6-dimethyl-5H-pyrrolo[3,2-d]pyrimidine-7-carboxamide]
COc1cc(-c2ncnc3c(C(=O)N[C@@H]4CCN(C(=O)CO)C4)c(C)[nH]c23)c(OCC2CC2)cc1F [Example F111, 4-[2-(Cyclopropylmethoxy)-4-fluoro-5-methoxyphenyl]-N-[(3R)-1-glycoloylpyrrolidin-3-yl]-6-methyl-5H-pyrrolo[3,2-d]pyrimidine-7-carboxamide]
